Among the test systems are CAKI-1; A498; U-251; SF-539; OVCAR-8; NCI-H226; EKVX; LOX IMVI; UO-31; HCT-116; NCI-H23; A549; IGROV-1; MDA-MB-231; COLO 205; ACHN; HOP-92; SK-MEL-5; SK-MEL-28; HCC 2998.
Common to all, as to assay: NCI-60 cell line screen, 48 h

The record followed here is ChEMBL document CHEMBL1201862, “PubChem BioAssay data set” (2004).

The structures appear in SMILES notation.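 Following 48 hours of exposure in 96-well plates, responses at five concentrations were used to interpolate endpoints linearly. At the GI50, growth is halved.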 Calls of active or inactive are those of the source. Cut-off read from the data, not from the text of the source: active = GI50 up to about 1.1 µM and inactive = higher.

On to `CC(C)c1cccc(C(C)C)c1OS(=O)(=O)NC(=O)OC(C(F)(F)F)C(F)(F)F`, for which the GI50 with CAKI-1 is > 100 µM (inactive); in the test with A498 it was 71.9 µM (inactive); in the test with U-251, 43.7 µM (inactive); with SF-539, 30.6 µM (inactive); with OVCAR-8, 46.5 µM (inactive); in the test on NCI-H226, 35.8 µM (inactive). The GI50 was 37.8 µM (inactive) in the test with EKVX; 50 µM (inactive) in the test on LOX IMVI; 30.1 µM (inactive) in the test on UO-31; 31.5 µM (inactive) with HCT-116; 45.7 µM (inactive) with NCI-H23; 28.6 µM (inactive) in the test on A549. The GI50 in the test on IGROV-1 is > 100 µM (inactive); with MDA-MB-231, 36.9 µM (inactive); with COLO 205, 88.3 µM (inactive); in the test with ACHN, 37.1 µM (inactive); in the test on HOP-92 it was 21.6 µM (inactive); in the test with SK-MEL-5 it was 53.2 µM (inactive). Further, the GI50 is > 100 µM (inactive) in the test on SK-MEL-28 and 40.5 µM (inactive) in the test on HCC 2998.

Turning to `O=c1[nH]nc(Cn2c3ccc(Br)cc3c3nc4ccccc4nc32)n1C1CCCCC1`, the GI50 in the test with CAKI-1 was > 100 µM (inactive); in the test with A498, 32.3 µM (inactive); in the test with U-251, 30.5 µM (inactive); in the test with SF-539, 13.3 µM (inactive); in the test with OVCAR-8 it was 12.8 µM (inactive); with NCI-H226, 59.4 µM (inactive). Moreover, the GI50 is 90.8 µM (inactive) in the test with EKVX; < 0.01 µM (active) in the test on LOX IMVI; > 100 µM (inactive) with UO-31; 70.1 µM (inactive) in the test on HCT-116; 12.9 µM (inactive) in the test with NCI-H23; 43.6 µM (inactive) in the test with A549. In addition, the GI50 in the test with IGROV-1 was > 100 µM (inactive); with MDA-MB-231, > 100 µM (inactive); in the test with COLO 205, 3.9 µM (inactive); with ACHN, > 100 µM (inactive); with HOP-92, 46.3 µM (inactive); in the test on SK-MEL-5, 36.9 µM (inactive). In addition, the GI50 in the test with SK-MEL-28 was 19.3 µM (inactive); in the test with HCC 2998, 54.6 µM (inactive).
